According to PubChem BioAssay (NCI):
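Briefly, cells in 96-well plates were exposed to five compound concentrations for 48 h, and endpoints were estimated by linear interpolation. GI50 = concentration required for 50% inhibition of growth. At the TGI there is no net growth.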

What was measured:
Assay in all cases: NCI tumour cell line growth inhibition, 48 h
HOP-92 NSCLC = tested on: HOP-92 NSCLC
CCRF-CEM leukemia = tested on: CCRF-CEM leukemia
OVCAR-5 ovarian = tested on: OVCAR-5 ovarian
NCI-H460 lung = tested on: NCI-H460 lung
OVCAR-3 ovarian = tested on: OVCAR-3 ovarian
SN12C renal = tested on: SN12C renal
M14 melanoma = tested on: M14 melanoma
OVCAR-4 ovarian = tested on: OVCAR-4 ovarian
UACC-62 melanoma = tested on: UACC-62 melanoma
HCC-2998 colon = tested on: HCC-2998 colon
SF-539 CNS = tested on: SF-539 CNS
HT29 colon = tested on: HT29 colon
SW-620 colon = tested on: SW-620 colon
RPMI-8226 leukemia = tested on: RPMI-8226 leukemia
SK-OV-3 ovarian = tested on: SK-OV-3 ovarian
A549 NSCLC = tested on: A549 NSCLC
EKVX NSCLC = tested on: EKVX NSCLC
SNB-75 CNS = tested on: SNB-75 CNS
BT-549 breast = tested on: BT-549 breast
HCT-116 colon = tested on: HCT-116 colon
U251 CNS = tested on: U251 CNS
T-47D breast = tested on: T-47D breast
UO-31 renal = tested on: UO-31 renal
LOX IMVI melanoma = tested on: LOX IMVI melanoma
MALME-3M melanoma = tested on: MALME-3M melanoma
SK-MEL-28 melanoma = tested on: SK-MEL-28 melanoma
HOP-62 NSCLC = tested on: HOP-62 NSCLC
SR leukemia = tested on: SR leukemia
HL-60(TB) leukemia = tested on: HL-60(TB) leukemia
MDA-MB-435 = tested on: MDA-MB-435
NCI-H522 lung = tested on: NCI-H522 lung
MOLT-4 leukemia = tested on: MOLT-4 leukemia
HS 578T breast = tested on: HS 578T breast
K-562 leukemia = tested on: K-562 leukemia
SNB-19 CNS = tested on: SNB-19 CNS
SK-MEL-2 melanoma = tested on: SK-MEL-2 melanoma
IGROV1 ovarian = tested on: IGROV1 ovarian
OVCAR-8 ovarian = tested on: OVCAR-8 ovarian
SF-268 CNS = tested on: SF-268 CNS
ACHN renal = tested on: ACHN renal
SK-MEL-5 melanoma = tested on: SK-MEL-5 melanoma
COLO 205 colon = tested on: COLO 205 colon
HCT-15 colon = tested on: HCT-15 colon
KM12 colon = tested on: KM12 colon
A498 renal = tested on: A498 renal
786-0 renal = tested on: 786-0 renal
RXF 393 renal = tested on: RXF 393 renal
NCI/ADR-RES ovarian = tested on: NCI/ADR-RES ovarian
SF-295 CNS = tested on: SF-295 CNS
DU-145 prostate = tested on: DU-145 prostate
MDA-MB-231 breast = tested on: MDA-MB-231 breast
MCF7 breast = tested on: MCF7 breast
UACC-257 melanoma = tested on: UACC-257 melanoma
PC-3 prostate = tested on: PC-3 prostate
TK-10 renal = tested on: TK-10 renal
NCI-H226 lung = tested on: NCI-H226 lung
CAKI-1 renal = tested on: CAKI-1 renal

## CN1C(=O)CCC(N2C(=O)c3cccc(NCCOCCOCCNC(=O)c4cc5c(o4)C(=O)c4ccccc4C5=O)c3C2=O)C1=O (centres undefined)
HOP-92 NSCLC
  GI50: 3.71 µM
  TGI: 13.6 µM
CCRF-CEM leukemia
  GI50: 3.75 µM
  TGI: 24.4 µM
OVCAR-5 ovarian
  GI50: 1.76 µM
  TGI: 3.17 µM
NCI-H460 lung
  GI50: 1.33 µM
  TGI: 2.97 µM
OVCAR-3 ovarian
  GI50: 1.53 µM
  TGI: 4 µM
SN12C renal
  GI50: 1.41 µM
  TGI: 2.79 µM
M14 melanoma
  GI50: 1.35 µM
  TGI: 2.74 µM
OVCAR-4 ovarian
  GI50: 1.43 µM
  TGI: 2.8 µM
UACC-62 melanoma
  GI50: 1.04 µM
  TGI: 2.35 µM
HCC-2998 colon
  GI50: 1.99 µM
  TGI: 3.96 µM
SF-539 CNS
  GI50: 1.63 µM
  TGI: 3.02 µM
HT29 colon
  GI50: 2.66 µM
  TGI: 6.98 µM
SW-620 colon
  GI50: 2.6 µM
  TGI: 7.93 µM
RPMI-8226 leukemia
  GI50: 2.32 µM
  TGI: 7.06 µM
SK-OV-3 ovarian
  GI50: 3.84 µM
  TGI: 12.4 µM
A549 NSCLC
  GI50: 1.99 µM
  TGI: 4.49 µM
EKVX NSCLC
  GI50: 2.59 µM
  TGI: 7.28 µM
SNB-75 CNS
  GI50: 2.74 µM
  TGI: 4.72 µM
BT-549 breast
  GI50: 1.38 µM
  TGI: 2.7 µM
HCT-116 colon
  GI50: 2.17 µM
  TGI: 6.21 µM
U251 CNS
  GI50: 2.4 µM
  TGI: 6.1 µM
T-47D breast
  GI50: 2.88 µM
  TGI: 10.3 µM
UO-31 renal
  GI50: 1.59 µM
  TGI: 3.31 µM
LOX IMVI melanoma
  GI50: 1.11 µM
  TGI: 3 µM
MALME-3M melanoma
  GI50: 0.151 µM
  TGI: 0.316 µM
SK-MEL-28 melanoma
  GI50: 2.04 µM
  TGI: 4.27 µM
HOP-62 NSCLC
  GI50: 1.97 µM
  TGI: 3.43 µM
SR leukemia
  GI50: 1.99 µM
  TGI: 7.5 µM
HL-60(TB) leukemia
  GI50: 2.03 µM
  TGI: 5.88 µM
MDA-MB-435
  GI50: 1.05 µM
  TGI: 2.28 µM
NCI-H522 lung
  GI50: 1.96 µM
  TGI: 5.08 µM
MOLT-4 leukemia
  GI50: 2.38 µM
  TGI: 5.8 µM
HS 578T breast
  GI50: 2.7 µM
  TGI: 7.46 µM
K-562 leukemia
  GI50: 2.13 µM
  TGI: 6.52 µM
SNB-19 CNS
  GI50: 1.58 µM
  TGI: 5.57 µM
SK-MEL-2 melanoma
  GI50: 2.2 µM
  TGI: 6.49 µM
IGROV1 ovarian
  GI50: 1.8 µM
  TGI: 4.31 µM
OVCAR-8 ovarian
  GI50: 2.45 µM
  TGI: 14.7 µM
SF-268 CNS
  GI50: 2.38 µM
  TGI: 6.79 µM
ACHN renal
  GI50: 2.04 µM
  TGI: 5.17 µM
SK-MEL-5 melanoma
  GI50: 0.242 µM
  TGI: 0.652 µM
COLO 205 colon
  GI50: 2.06 µM
  TGI: 4.04 µM
HCT-15 colon
  GI50: 1.77 µM
  TGI: 3.83 µM
KM12 colon
  GI50: 3.35 µM
  TGI: 12.6 µM
A498 renal
  GI50: 1.71 µM
  TGI: 3.2 µM
786-0 renal
  GI50: 2.27 µM
  TGI: 5.64 µM
RXF 393 renal
  GI50: 1.82 µM
  TGI: 3.79 µM
NCI/ADR-RES ovarian
  GI50: 6.3 µM
  TGI: 36.5 µM
SF-295 CNS
  GI50: 1.66 µM
  TGI: 3.08 µM
DU-145 prostate
  GI50: 1.5 µM
  TGI: 2.89 µM
MDA-MB-231 breast
  GI50: 2.64 µM
  TGI: 8.77 µM
MCF7 breast
  GI50: 1.46 µM
  TGI: 3.54 µM
UACC-257 melanoma
  GI50: 1.59 µM
  TGI: 3.11 µM
PC-3 prostate
  GI50: 2.07 µM
  TGI: 18 µM
TK-10 renal
  GI50: 3.5 µM
  TGI: 7.55 µM
NCI-H226 lung
  GI50: 1.67 µM
  TGI: 3.78 µM
CAKI-1 renal
  GI50: 3.35 µM
  TGI: 12.1 µM
